Experimental data from patent US12065438B2, “Substituted tricyclic compounds as indoleamine 2,3-dioxygenase inhibitors” (Merck Sharp & Dohme LLC, priority 2019, dated 2024).

Experiments:
IDO1 [1] = target: T1, IDO1 (Homo sapiens, UniProt P14902); test: IDO1 Cellular Assay in HeLa Cells Stimulated with IFNγ; assay type: cell-based; design: endogenous in cells; host or cells: HeLa cells stimulated with IFNγ; details: HeLa cells stimulated with IFNγ 100 ng/mL, 300 uM L-tryptophan, about 48 hours, fluorescence readout; read-out: IDO1 HELA Cell Assay, IC50
T1 sequence (P14902 whole entry): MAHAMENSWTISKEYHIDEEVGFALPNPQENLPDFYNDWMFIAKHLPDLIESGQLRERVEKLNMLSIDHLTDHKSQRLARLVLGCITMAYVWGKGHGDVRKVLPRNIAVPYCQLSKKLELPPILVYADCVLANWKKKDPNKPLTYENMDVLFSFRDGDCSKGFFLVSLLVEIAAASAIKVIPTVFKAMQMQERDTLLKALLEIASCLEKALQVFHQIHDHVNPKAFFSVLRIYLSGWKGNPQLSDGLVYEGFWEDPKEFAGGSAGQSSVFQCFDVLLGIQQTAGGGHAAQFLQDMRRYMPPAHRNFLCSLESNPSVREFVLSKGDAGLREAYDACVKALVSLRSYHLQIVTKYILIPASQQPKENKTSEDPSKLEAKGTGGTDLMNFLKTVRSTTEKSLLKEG
Experimental: Biological Assays IDO1 Cellular Assay in HeLa Cells Stimulated with IFNγ HeLa cells were cultured in complete HeLa culture medium (90% EMEM, 10% heat-inactivated fetal bovine serum) and expanded to about 1×10^9 cells. The cells were then collected and frozen down at 1×10^7 cells/vial in 1 mL frozen medium (90% complete HeLa culture medium, 10% DMSO). Compounds to be tested were serially diluted in ten 3-fold steps in DMSO starting from 10 mM DMSO stocks in Echo low volume plate(s). Compound dilutions or DMSO alone were then dispensed from the dilution plate(s) into Greiner black 384-well assay plate(s) (catalog #781086, 50 nL/well) using an Echo 550 acoustic liquid handler (Labcyte). Frozen HeLa cells were thawed and transferred into HeLa assay medium (99% complete HeLa culture medium, 1% Pen/Strep) with 20 mL medium/vial of cells. The cells were spun down at 250 g in a table top centrifuge for 5 min and suspended in same volume of HeLa assay medium. The cells were then counted and adjusted to a density of 2×10^5 cells/mL in HeLa assay medium. Sterile L-tryptophan were added to the cells with final concentration of 300 uM L-tryptophan. A small aliquot (2 mL/plate) of HeLa cells were set aside and were not treated with IFNγ, to serve as the Max-E control. The rest of HeLa cells were added with sterile IFNγ (Cat #285-IF, R & D systems) with a final concentration of 100 ng/mL. HeLa cells with and without IFNγ were dispensed to the respective wells of 384-well assay plates containing the compounds. The plates were incubated for about 48 hours at a 37° C., 5% CO2 incubator. Afterwards, 12 μL of 0.5 M methyl isonipecotate in dimethyl sulfoxide were added into each well and the plates were sealed and incubated at 37° C. without CO2 overnight. The plates were centrifuged for 1 min at 200×g. The resulting fluorescence was measured in a Spectramax plate reader (Molecular Devices) with a 400 nm excitation filter and a 510 nm emission filter. The fluorescence intensity of each well was corrected for the background observed in wells with non-IFNγ-treated cells and was expressed as a fraction of the intensity observed in wells of IFNγ-treated cells and DMSO only. Potencies were calculated by […] least squares fit to the four parameter logistic IC50 equation.

IDO1 [2] = target: T1, IDO1; test: IDO1 Human Whole Blood Assay; assay type: cell-based; details: LPS and IFNγ 100 ng/mL, overnight (18 h), kynurenine by LC/MS/MS
Experimental: IDO1 Human Whole Blood Assay
Compounds to be tested were serially diluted in ten 3-fold steps in DMSO starting from 10 mM. 3 μL of compound dilutions or DMSO alone were then dispensed from the dilution plate into a polypropylene 96-well assay plate containing 97 μL of RPMI medium using an Echo 555 acoustic liquid handler (Labcyte). LPS and IFNγ was prepared in RPMI medium to a 10× of final conc. (1000 ng/mL), final concentration is 100 ng/mL.
240 μL of blood was transferred to each of the wells of a v-bottom 96 well plate. 30 μL of compound was transferred from intermediate dilution plate, and incubated for 15 min. 30 μL from stimulants was then transferred to blood and mixed thoroughly. Plate was covered with breathable membrane and incubated at 37° C. for overnight (18 h).
On day 2, isotope labeled standard solutions of kynurenine and tryptophan was made in water at 10× concentration and 30 μL was added to the blood at 3 μM final concentration. The assay plates were centrifuged at 300×G for 10 min with no brake to separate plasma from red blood cells. 60 μL of plasma samples was removed without disturbing red blood cells. Plasma was diluted with RPMI in 1:1 ratio and proteins were precipitated out with two volumes of Acetonitrile. The plates were centrifuged at 4000×G for 60 min. 20 μL of supernatant was carefully transferred to a 384 well plate containing 40 μL of 0.1% formic acid in water and analyzed by LC/MS/MS.
LC/MS/MS analyses were performed using Thermo Fisher's LX4-TSQ Quantum Ultra system. This system consists of four Agilent binary high-performance liquid chromatography (HPLC) pumps and a TSQ Quantum Ultra triple quadrupole MS/MS instrument. For each sample, 5 μL were injected onto an Atlantis T3 column (2.1 mm×150 mm, 3 μm particle size) from Waters. The mobile phase gradient pumped at 0.8 mL/min was used to elute the analytes from the column at 25° C. The elution started at 0% B increasing linearly to 25% B at 6.5 min, holding at 25% for 1 min, re-equilibrating to 10 min. Mobile phase A consisted of 0.1% formic acid in water. Mobile phase B consisted of 0.1% of formic acid in acetonitrile. Data were acquired in positive mode using a HESI interface. The operational parameters for the TSQ Quantum Ultra instrument were a spray voltage of 4000 V, capillary temperature of 380° C., vaporizer temperature 400° C., shealth gas 60 arbitrary units, Aux gas 20 arbitrary units, tube lens 85 and collision gas 1.2 mTorr. SRM chromatograms of kynurenine (Q1: 209.2>Q3:94.0) and internal standard (Q1: 215.3>Q3:98.2) were collected for 90 sec. The peak area was integrated by Xcalibur Quan software. The ratios between the kynurenine generated in the reaction and 2D6-Kynurenine spiked-in internal standard were used to generate percentage inhibition and IC50 values. Compounds were titrated and IC50's were calculated by 4 parameter sigmoidal curve fitting formula.

Row | SMILES | IC50 (IDO1 [1]) [nM] | IC50 (IDO1 [2]) [nM]
1 | CCc1nccc(N2CC3CC3c3nc(C4(NC(=O)c5ccc(F)cc5)CC4)ccc32)n1 (centres unmarked) [Example 14, N-(1-(5-(2-ethylpyrimidin-4-yl)-6,6a,7,7a-tetrahydro-5H-cyclopropa[c][1,5]-naphthyridin-2-yl)cyclo-propyl)-4-fluorobenzamide] | 3.5 | 105
2 | O=C(NC1(c2ccc3c(n2)C2CC2CN3c2ccnc(C3CC3)n2)CC1)c1ccc(F)cc1 (centres unmarked) [Example 15, N-(1-(5-(2-cyclopropyl-pyrimidin-4-yl)-6,6a,7,7a-tetrahydro-5H-cyclo-propa[c][1,5]naphthyridin-2-yl)cyclopropyl)-4-fluorobenzamide] | 4.4 | 50
3 | O=C(NC1(c2ccc3c(n2)C2CC2CN3c2ccnc(C3CC3)n2)CC1)c1ccc(F)cc1 (centres unmarked) [Example 16, N-(1-(5-(2-cyclopropyl-pyrimidin-4-yl)-6,6a,7,7a-tetrahydro-5H-cyclo-propa[c][1,5]naphthyridin-2-yl)cyclopropyl)-4-fluorobenzamide] | 2.6 | 32

Second part, the molecule after the results:

Row | IC50 (IDO1 [1]) [nM] | IC50 (IDO1 [2]) [nM] | SMILES
4 | 12 | 248 | CC(C)(O)c1nccc(N2CC3CC3c3nc(C4(NC(=O)c5ccc(F)cc5)CC4)ccc32)n1 (centres unmarked) [Example 18, 4-fluoro-N-(1-(5-(2-(2-hydroxypropan-2-yl)pyrimidin-4-yl)-6,6a,7,7a-tetrahydro-5H-cyclopropa[c][1,5]naphthyridin-2-yl)cyclopropyl)benzamide]
5 | 11 | 151 | O=C(NC1(c2ccc3c(n2)C2CC2CN3c2ccnc(CO)n2)CC1)c1ccc(F)cc1 (centres unmarked) [Example 19, 4-fluoro-N-(1-(5-(2-(hydroxymethyl)pyrimidin-4-yl)-6,6a,7,7a-tetrahydro-5H-cyclopropa[c][1,5]naphthyridin-2-yl)cyclopropyl)benzamide]
6 | 3.23 | 463 | C[C@@H](NC(=O)c1ccc(F)cc1)c1ccc2c(n1)[C@@H]1C[C@@H]1CN2C(=O)OC1CC1 [Example 27, cyclopropyl (6aS,7aR)-2-((R)-1-(4-fluorobenzamido)-ethyl)-6,6a,7,7a-tetrahydro-5H-cyclopropa[c][1,5]-naphthyridine-5-carboxylate]
7 | 1300 | 778 | CC(C)(NC(=O)c1ccc(F)cc1)c1ccc2c(n1)C1CC1CN2C(=O)C(F)(F)F (centres unmarked) [Example 35, 2-(2-(4-fluorobenzamido)propan-2-yl)-5-(2,2,2-trifluoroacetyl)-6,6a,7,7a-tetrahydro-5H-cyclopropa[c][1,5]naphthyridin-1-ium]
